Values quoted from earlier work in US20040265272A1, “Mammalian cell-infecting virus vector encoding epitope-bound beta2m and utilization thereof” (priority 2001, published 2004).

System: CTL
Conditions: HLA-A24- or HLA-A26-restricted peptide; cancer patients

| Substance | CTL induction |
| --- | --- |
| SART-1 690-698: HLA-A24-restricted peptide of the SART-1 antigen (EYRGFTQDF; UniProt O43290 690-698, looked up, fragment) | strongly induced CTL |
| SART-1 736-744: HLA-A26-restricted peptide of the SART-1 antigen (KGSGKMKTE; UniProt O43290 736-744, looked up, fragment) | induced CTL in cancer patients with HLA-A2601, -A2602, or -A2603 |
